Patent US20250115558A1, “PYRIDAZINE DERIVATIVES AND RELATED USES” (NodThera Limited, priority 2023, published 2025)
Structures can show the parent of a compound that is named as a salt.

What was measured:
[1] = test system: IL-1β release upon NLRP3 activation in peripheral blood mononuclear cells (PBMC); assay: PBMC IC50 Determination Assay; type: cell-based; details: Homo sapiens; inhibition of IL-1β release; LPS-primed PBMC stimulated with ATP or nigericin
Procedure: The compounds of the present disclosure were tested for their inhibitory activity against IL-1β release upon NLRP3 activation in peripheral blood mononuclear cells (PBMC).
Protocol A. PBMC were isolated from buffy coats by density gradient centrifugation on Histopaque-1077 (Sigma, cat no. 10771). Isolated cells were seeded into the wells of a 96-well plate and incubated for 3 h with lipopolysaccharide (LPS). Following medium exchange, the compounds of the present disclosure were added (a single compound per well) and the cells were incubated for 30 min. Next, the cells were stimulated either with ATP (5 mM) or nigericin (10 μM) for 1 h and the cell culture media from the wells were collected for further analysis.
The release of IL-1β into the media was determined by a quantitative detection of IL-1β in the media using an IL-1β enzyme-linked immunosorbent assay (ELISA) Ready-SET-Go!, eBioscience cat. No. 88-7261-88. Briefly, in a first step, high affinity binding plates (Corning, Costar 9018 or NUNC Maxisorp Cat No. 44-2404) were coated overnight at 4° C. with specific capture antibody included in the kit (anti-human IL-1β ref. 14-7018-68). Subsequently, plates were blocked with blocking buffer for 1 h at room temperature (rt) and after washing with a buffer (PBS with 0.05% Tween-20) incubated with protein standard and culture media. After 2 h of incubation at rt, plates were washed and incubated with biotinylated detection antibody included in the kit (anti-human IL-1β Biotin ref. 33-7110-68) for 1 h at rt. Plates were washed and incubated with HRP-streptavidin for 30 min at rt and washed again. The signal was developed after addition of 3,3′,5,5′-tetramethylbenzidine-peroxidase (TMB) until colour appeared and the reaction was stopped by 2 M H2SO4. A microplate spectrophotometer (BioTek) was used to detect signals with 450 nm. The detection range of IL-1β ELISA was […].
Protocol B. PBMC were isolated from buffy coats by density gradient centrifugation on Histopaque-1077 (Sigma, cat no. 10771). Isolated cells were seeded into the wells (280,000 cells/well) of a 96-well plate and incubated for 3 h with lipopolysaccharide (LPS, 1 μg/mL diluted 1000× from a 1 mg/mL stock solution). The compounds of the present disclosure were added (a single compound per well) and the cells were incubated for 30 min. Next, the cells were stimulated with ATP (5 mM final concentration diluted 20× from a 100 mM stock solution) for 1 h and the cell culture media from the wells were collected for further analysis.
The release of IL-1β into the media was determined by quantitative detection of IL-1β in the media using HTRF®, CisBio cat. No. 62HIL1BPEH. Briefly, cell culture supernatant were dispensed directly into the assay plate containing antibodies labelled with the HTRF® donor and acceptor. A microplate spectrophotometer (BMG) was used to detect signals at 655 nm and 620 nm. The detection range of IL-1β HTRF® was 39-6500 μg/mL.

[2] = test system: THP-1; assay: THP-1 IC50 assay; type: cell-based; details: Homo sapiens; THP-1 cells

SMILES	IC50 [1]	IC50 [2]
Cc1cc(C(F)(F)F)cc(O)c1-c1ccc(Cn2ccc(=N)nc2)nn1 [Compound 120]	≥ 10000 nM	3000 to 10000 nM
Oc1cc(Cl)cc(Cl)c1-c1ccc(CNC2CCOCC2)nn1 [Compound 36, 3,5-Dichloro-2-(6-(((tetrahydro-2H-pyran-4-yl)amino)methyl)pyridazin-3-yl)phenol]	500 to 1000 nM	1000 to 3000 nM
Cc1cc(Cl)cc(O)c1-c1ccc(CN[C@@H]2CCOC2)nn1 [Compound 53, (R)-5-Chloro-3-methyl-2-(6-(((tetrahydrofuran-3-yl)amino)methyl)pyridazin-3-yl)phenol]	< 500 nM	< 500 nM
Cc1cc(C(F)(F)F)cc(O)c1-c1ccc(CNCC2CCCOC2)nn1 (stereo not shown) [Compound 108]	3000 to 10000 nM	3000 to 10000 nM
Cc1cc(C(F)(F)F)cc(O)c1-c1ccc(CN[C@@H]2CCC(=O)N(C)C2)nn1 [Compound 43, (R)-5-(((6-(2-Hydroxy-6-methyl-4-(trifluoromethyl)phenyl)pyridazin-3-yl)methyl)amino)-1-methylpiperidin-2-one]	< 500 nM	500 to 1000 nM
CC(=O)N1CC[C@@H](NCc2ccc(-c3c(C)cc(Cl)cc3O)nn2)C1 [Compound 72, (R)-1-(3-(((6-(4-Chloro-2-hydroxy-6-methylphenyl)pyridazin-3-yl)methyl)amino)pyrrolidin-1-yl)ethan-1-one]	500 to 1000 nM	1000 to 3000 nM
Cc1cc(C(F)(F)F)cc(O)c1-c1ccc(COC2CCNCC2)nn1 [Compound 19, 3-Methyl-2-(6-((piperidin-4-yloxy)methyl)pyridazin-3-yl)-5-(trifluoromethyl)phenol]	1000 to 3000 nM	1000 to 3000 nM
COCC(=O)NCc1ccc(-c2c(C)cc(C(F)(F)F)cc2O)nn1 [Compound 8, N-((6-(2-Hydroxy-6-methyl-4-(trifluoromethyl)phenyl)pyridazin-3-yl)methyl)-2-methoxyacetamide]	1000 to 3000 nM	3000 to 10000 nM
Cc1cc(C(F)(F)F)cc(O)c1-c1ccc(C(C)(C)N2CCCC2=O)nn1 [Compound 81, 1-(2-{6-[2-Hydroxy-6-methyl-4-(trifluoromethyl)phenyl]pyridazin-3-yl}propan-2-yl)pyrrolidin-2-one]	1000 to 3000 nM	1000 to 3000 nM
Cc1cc(C(F)(F)F)cc(O)c1-c1ccc(CNCc2cnccn2)nn1 [Compound 92, 3-Methyl-2-(6-(((pyrazin-2-ylmethyl)amino)methyl)pyridazin-3-yl)-5-(trifluoromethyl)phenol]	1000 to 3000 nM	3000 to 10000 nM
Cc1cc(Cl)cc(O)c1-c1ccc(CO[C@@H]2CCOC2)nn1 [Compound 63, (R)-5-Chloro-3-methyl-2-(6-(((tetrahydrofuran-3-yl)oxy)methyl)pyridazin-3-yl)phenol]	< 500 nM	500 to 1000 nM
Cc1cc(C(F)(F)F)cc(O)c1-c1ccc(CNC2CCN(C)CC2)nn1 [Compound 110]	1000 to 3000 nM	1000 to 3000 nM
Cc1cc(C(F)(F)F)cc(O)c1-c1ccc(CN[C@@H]2CCOC2)nn1 [Compound 32, (R)-3-Methyl-2-(6-(((tetrahydrofuran-3-yl)amino)methyl)pyridazin-3-yl)-5-(trifluoromethyl)phenol]	< 500 nM	500 to 1000 nM
Cc1cn(Cc2ccc(-c3c(C)cc(C(F)(F)F)cc3O)nn2)c(=N)s1 [Compound 125]	1000 to 3000 nM	1000 to 3000 nM
Cc1cc(C(F)(F)F)cc(O)c1-c1ccc(CN2CC[C@@H](F)C2)nn1 [Compound 34, (R)-2-(6-((3-Fluoropyrrolidin-1-yl)methyl)pyridazin-3-yl)-3-methyl-5-(trifluoromethyl)phenol]	1000 to 3000 nM	1000 to 3000 nM
Cc1cc(C(F)(F)F)cc(O)c1-c1ccc(CNCC2COC2)nn1 [Compound 104]	1000 to 3000 nM	1000 to 3000 nM
Cc1cc(C(F)(F)F)cc(O)c1-c1ccc(CNC2CCN(C)C(=O)C2)nn1 (stereo not shown) [Compound 112]	500 to 1000 nM	1000 to 3000 nM
Cc1cc(C(F)(F)F)cc(O)c1-c1ccc(CNCC2CCCN2C)nn1 (stereo not shown) [Compound 76, 3-Methyl-2-(6-((((1-methylpyrrolidin-2-yl)methyl)amino)methyl)pyridazin-3-yl)-5-(trifluoromethyl)phenol dihydrochloride]	1000 to 3000 nM	1000 to 3000 nM

SMILES	IC50 [1]	IC50 [2]
Oc1cc(C(F)(F)F)cc(Cl)c1-c1ccc(CNC2CCOCC2)nn1 [Compound 14, 3-Chloro-2-(6-(((tetrahydro-2H-pyran-4-yl)amino)methyl)pyridazin-3-yl)-5-(trifluoromethyl)phenol]	1000 to 3000 nM	1000 to 3000 nM
Cc1cc(C(F)(F)F)cc(O)c1-c1ccc(CNC2(C)CCOC2)nn1 (stereo not shown) [Compound 6, 3-Methyl-2-(6-(((3-methyltetrahydrofuran-3-yl)amino)methyl)pyridazin-3-yl)-5-(trifluoromethyl)phenol hydrochloride]	500 to 1000 nM	500 to 1000 nM
Cc1cc(C(F)(F)F)cc(O)c1-c1ccc(CNC2CCC(=O)N(C)C2)nn1 (stereo not shown) [Compound 111]	< 500 nM	< 500 nM
Cc1cc(C(F)(F)F)cc(O)c1-c1ccc(CNc2c(C)noc2C)nn1 [Compound 51, 2-(6-(((3,5-Dimethylisoxazol-4-yl)amino)methyl)pyridazin-3-yl)-3-methyl-5-(trifluoromethyl)phenol]	500 to 1000 nM	1000 to 3000 nM
CO[C@@H]1CCN(Cc2ccc(-c3c(C)cc(C(F)(F)F)cc3O)nn2)C1 [Compound 39, (R)-2-(6-((3-Methoxypyrrolidin-1-yl)methyl)pyridazin-3-yl)-3-methyl-5-(trifluoromethyl)phenol]	500 to 1000 nM	1000 to 3000 nM
Cc1cc(C(F)(F)F)cc(O)c1-c1ccc(Cn2ccc(=N)cn2)nn1 [Compound 121]	≥ 10000 nM	3000 to 10000 nM
Cc1cc(C(F)(F)F)cc(O)c1-c1ccc(Cn2ccc(=N)cc2)nn1 [Compound 25]	3000 to 10000 nM	3000 to 10000 nM
Cc1cc(C(F)(F)F)cc(O)c1-c1ccc(CN[C@H]2CC[C@@](C)(O)CC2)nn1 [Compound 153]	1000 to 3000 nM	1000 to 3000 nM
Cc1cc(C(F)(F)F)cc(O)c1-c1ccc(CN2CCOC2=O)nn1 [Compound 44, 3-((6-(2-Hydroxy-6-methyl-4-(trifluoromethyl)phenyl)pyridazin-3-yl)methyl)oxazolidin-2-one]	< 500 nM	500 to 1000 nM
CC(=O)N1CC[C@H](NCc2ccc(-c3c(C)cc(Cl)cc3O)nn2)C1 [Compound 73, (S)-1-(3-(((6-(4-Chloro-2-hydroxy-6-methylphenyl)pyridazin-3-yl)methyl)amino)pyrrolidin-1-yl)ethan-1-one]	< 500 nM	< 500 nM
Cc1cc(C(F)(F)F)cc(O)c1-c1ccc(CNC2CCCOC2)nn1 (stereo not shown) [Compound 102]	500 to 1000 nM	1000 to 3000 nM
Cc1cc(Cl)cc(O)c1-c1ccc(CN2CCCC2=S)nn1 [Compound 89, 1-{[6-(4-Chloro-2-hydroxy-6-methylphenyl)pyridazin-3-yl]methyl}pyrrolidine-2-thione]	< 500 nM	< 500 nM
Cc1cc(C(F)(F)F)cc(O)c1-c1ccc(CNCC2CCCCO2)nn1 (stereo not shown) [Compound 107]	3000 to 10000 nM	3000 to 10000 nM
Oc1cc(C(F)(F)F)cc(F)c1-c1ccc(CNC2CCOCC2)nn1 [Compound 42, 3-Fluoro-2-(6-(((tetrahydro-2H-pyran-4-yl)amino)methyl)pyridazin-3-yl)-5-(trifluoromethyl)phenol]	3000 to 10000 nM	3000 to 10000 nM
Cc1cc(C(F)(F)F)cc(O)c1-c1ccc(CNCCN2CCOCC2)nn1 [Compound 144]	1000 to 3000 nM	3000 to 10000 nM
Cc1cc(C(F)(F)F)cc(O)c1-c1ccc(CN2CCCCC2=O)nn1 [Compound 151]	< 500 nM	< 500 nM
CO[C@H]1CCN(Cc2ccc(-c3c(C)cc(C(F)(F)F)cc3O)nn2)C1 [Compound 40, (S)-2-(6-((3-Methoxypyrrolidin-1-yl)methyl)pyridazin-3-yl)-3-methyl-5-(trifluoromethyl)phenol]	500 to 1000 nM	1000 to 3000 nM
